In patent publication US8703698B2, “Compositions and methods for treating atherosclerosis” (The University of Chicago, priority 2003, dated 2014):
Where no end group is shown, it is not given here. [ ]: non-standard residue; d: D form.

Columns and labels:
J774 macrophages = assay: [3H]cholesterol efflux from cholesterol-loaded J774 macrophages in tissue culture; format: cell-based, mouse; conditions: for cholesterol export enhancing activity, time course (FIG. 9) / cholesterol export enhancing activity relative to the human SAA1.1 78-96 containing liposomal formulation (FIG. 9): liposomal formulations, mouse J774 cells; for rate of [3H]cholesterol efflux into medium containing HDL: pre-incubation with liposomes containing 0.5 μM peptide, HDL as acceptor
[1] = tested on: [3H]-cholesterol-loaded J774 macrophages; assay: In vivo cholesterol efflux to plasma in mice injected with [3H]-cholesterol-loaded J774 macrophages
Protocol: In these experiments, in vivo cholesterol export was determined in mice injected with J774 macrophages cholesterol-loaded with RBC membranes and [^3H]-cholesterol. Two hundred thousand macrophages in 100:1 PBS were injected into each mouse through the tail vein. At various time points thereafter, approximately 25:1 of blood were collected from the tail vein of each animal into heparinized capillary tubes. The tubes were then centrifuged for 5 minutes in an Adams Autocrit Centrifuge to separate red blood cells from plasma. Cholesterol efflux was determined by measuring the appearance of [^3H]-cholesterol in plasma by scintillation spectrometry. To study whether export of cholesterol from J774 cells to plasma was influenced by non-liposome formulated D-27mer peptide (SEQ ID NO:10), 24 hours after injection of cholesterol-loaded J774 macrophages into mice, the same animals received, by intravenous injection, 30 μg, 60 μg, 150 μg, 225 μg, 300 μg or 600 μg of D-27mer. All these amounts of D-peptides were dissolved in 100:l of phosphate buffered saline and injected through the tail vein of each animal.
Additional in vivo studies have also been conducted wherein mice were first injected intravenously with [^3H]cholesterol-laden macrophages and then injected 24 hours later with liposomes containing 0.5 μM of synthetic peptides corresponding to amino acid residues 1-20, 21-50, 51-80 or 74-103 of murine SAA2.1. Results from this study are depicted in FIG. 1. At time points indicated in the graph of FIG. 1, approximately 25 μl of blood were collected from the tail vein of each animal. The blood samples were centrifuged to separate the red blood cells from the plasma and the [^3H]-cholesterol in plasma was determined by scintillation counting. Results are mean±SEM of four determinations.
To determine cholesterol export in vivo, J774 macrophages were cholesterol-loaded with red blood cell membranes and [^3H]-cholesterol as described above. Cells were washed four times with PBS/BSA and then detached from the culture dishes. Five million cells in 200 μl DMEM were injected into control mice or inflamed mice through the tail vein. At various time points, approximately 25 μl of blood were collected from the tail vein of each animal into heparinized capillary tubes and then centrifuged for 5 minutes in an Adams Autocrit Centrifuge to separate red blood cells from plasma. Cholesterol efflux was determined by measuring the appearance of [^3H]-cholesterol in plasma by scintillation spectrometry.
J774 cells cultured in 6-well plates were enriched with cholesterol by incubating with red blood cell (RBC) membrane fragments (175:g as cholesterol) that had been previously labeled with 0.5:Ci/ml [^3H]-cholesterol at 37° C. for 24 hours in 0.2% bovine serum albumin (BSA). After loading with the labelled RBC membrane for 6 hours, cells were then washed with phosphate-buffered saline/BSA (PBS/BSA) three times followed by an 18 hour equilibration period during which monolayers were exposed to DMEM/BSA. To determine cholesterol export in vivo, J774 macrophages were cholesterol-loaded with RBC membranes and [^3H]-cholesterol as described previously above. Cells were washed four times with PBS/BSA and then detached from the culture dishes. Two hundred thousand cells in 100:l PBS were injected into mice through the tail vein. At various time points thereafter, approximately 25:l of blood were collected from the tail vein of each animal into heparinized capillary tubes. These tubes were then centrifuged for 5 minutes in an Adams Autocrit Centrifuge to separate red blood cells from plasma. Cholesterol efflux was determined by measuring the appearance of [^3H]-cholesterol in plasma by scintillation spectrometry. […]

[2] = tested on: cholesterol ester hydrolase; assay: Rate of hydrolysis of cholesteryl ester in cholesterol-laden J774 cells (cholesterol ester hydrolase activity); format: cell-based, murine; conditions: liposomes containing 0.5 μl synthetic peptide; J774 cells; Sandoz 58-035 present
Protocol: Identification of the domain of SAA2.1 that is responsible for enhancing cholesterol ester hydrolase activity was performed in J774 cells preloaded with radio-labeled cholesteryl esters. These experiments were performed in the presence of Sandoz 58-035, an inhibitor of acyl CoA:cholesterol acyl transferase activity, to prevent re-esterification of liberated cholesterol and [^14C]oleate. Incubations proceeded for times ranging from 0 to 24 hours, following which the remaining quantities of [^14C]-labeled cholesteryl oleate in cells were measured to determine the rate of hydrolysis of cholesteryl ester. […] However, an equivalent amount of liposomes containing the synthetic peptide corresponding to amino acid residues 74-103 of murine SAA2.1 caused a 3-fold increase in cholesterol ester hydrolase activity in these cholesterol-laden murine cells. Newly confluent J774 cells were labeled with [^14C]-oleate during cholesterol loading with red blood cell membranes as described above. Cells were then incubated for up to 24 hours with 2 mL of DMEM containing 5% LPDS and 50 μg/mL of either native HDL, SAA-HDL, liposomes containing 2 μmoles of apoA-1, SAA1.1 or 2.1, or liposomes containing 0.5:mol synthetic peptides corresponding to amino acid residues 1-20 (SEQ ID NO:1), 21-50 (SEQ ID NO:2), 51-80 (SEQ ID NO:3) and 74-103 (SEQ ID NO:4) of murine SAA2.1. To determine the rate of cholesteryl ester hydrolysis, 2 μg/mL of the acyl CoA:cholesterol acyl transferase inhibitor Sandoz 58-035 (propanimide, 3-(decyldimethylsilyl)-N-[2-(4-methylphenyl)-1-phenylethyl]-(9Cl) was added during incubation with lipoproteins or liposomes to prevent […] and free cholesterol. To examine whether or not the rate of cholesteryl ester hydrolysis involved the lysosomal cholesteryl ester hydrolase, the cells were cultured in the presence of 50 μg/mL of either native HDL and chloroquine or SAA-HDL and chloroquine (100:M). Chloroquine is an agent that neutralizes the lysosomal proton gradient. At various time points, cellular lipids were extracted and analyzed for cholesteryl ester radioactivity as described above.

[3] = target: T1, acyl CoA:cholesterol acyl transferase (Mus musculus, UniProt Q61263); assay: Incorporation of [14C]oleate into cholesteryl ester in cholesterol-laden macrophages (ACAT activity); format: cell-based, murine; conditions: liposomes containing 0.5 μM synthetic peptide; 6 hour incubation; cholesterol-laden murine cells
T1 construct: host or cells: J774 mouse macrophages, cholesterol-loaded
T1 sequence (Q61263 1-540): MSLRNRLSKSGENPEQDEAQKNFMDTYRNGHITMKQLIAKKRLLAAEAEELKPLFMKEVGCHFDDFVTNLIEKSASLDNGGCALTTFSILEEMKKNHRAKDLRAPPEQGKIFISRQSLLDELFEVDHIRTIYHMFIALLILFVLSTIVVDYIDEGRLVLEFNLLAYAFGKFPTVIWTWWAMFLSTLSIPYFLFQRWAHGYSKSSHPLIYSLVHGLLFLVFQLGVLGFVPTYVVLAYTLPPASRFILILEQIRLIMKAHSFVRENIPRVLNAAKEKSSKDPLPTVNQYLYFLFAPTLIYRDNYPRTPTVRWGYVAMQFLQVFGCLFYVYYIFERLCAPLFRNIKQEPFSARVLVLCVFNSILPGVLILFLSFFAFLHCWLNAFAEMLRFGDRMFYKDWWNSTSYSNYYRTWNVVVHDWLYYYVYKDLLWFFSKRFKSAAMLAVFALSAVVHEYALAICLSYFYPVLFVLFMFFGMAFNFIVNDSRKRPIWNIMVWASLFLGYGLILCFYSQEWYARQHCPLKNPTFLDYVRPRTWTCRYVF
Protocol: The incorporation of [^14C]oleate into cholesteryl ester was used as a measure of acyl CoA:cholesterol acyl transferase activity to identify compositions inhibiting the enzyme activity. The relative acyl CoA:cholesterol acyl transferase activity was determined in cholesterol-laden murine cells that had been cultured in medium in the absence of liposomes or in the presence of protein-free liposomes or liposomes containing 0.5 μM synthetic peptides corresponding to amino acids 1-20, 21-50, 51-80 and 74-103 of murine SAA2.1.
To load the cells with cholesterol, nearly confluent mono-layers were washed 3 times with phosphate buffered saline containing 2 mg/mL fatty acid-free bovine serum albumin (PBS-BSA) and incubated for 5 hours in DMEM supplemented with 5% lipoprotein-depleted serum (LPDS) (d>1.25 g/mL) and 175 μg of red blood cell membrane cholesterol. For the purpose of pool equilibration of added cholesterol, cell cultures were rinsed twice with PBS-BSA and incubated overnight in DMEM containing 5% LPDS. The relative activity of acyl CoA:cholesterol acyl transferase was determined in cholesterol-laden cells that had been cultured in medium containing no liposomes, protein-free liposomes or liposomes containing 0.5:M synthetic peptides corresponding to amino acid residues 1-20 (SEQ ID NO:1), 21-50 (SEQ ID NO:2), 51-80 (SEQ ID NO:3) or 74-103 (SEQ ID NO:4) of murine SAA2.1, respectively. Following 3 hours incubation with the above media, [^14C]-oleate was added and the cells were incubated for another 3 hour period (Mendez et al. J. Clin. Invest. 1994 94:1698-1705; Oram et al. Arterioscler. Thromb. 1991 11:403-414). Cells were chilled on ice and washed twice with PBS-BSA and twice with PBS. After addition of [^3H]-cholesteryl oleate (6000 dpm/well) as an internal standard, the lipids were extracted from the labeled cells and analyzed by thin-layer chromatography as described by Mendez et al. (J. Clin. Invest. 1994 94:1698-1705) and Oram et al. (Arterioscler. Thromb. 1991 11:403-414). The radioactivity in appropriate spots was measured to determine the incorporation of radioactivity into cholesteryl esters as a measure of acyl CoA:cholesterol acyl transferase activity.

In the case of “AANKWGRSGRDPNHFR [SEQ ID NO:28, residues 81-96 of human SAA2.1]”, the “cholesterol export enhancing activity, time course (FIG. 9)” value (J774 macrophages) is reported as “little to no cholesterol export enhancing activity”.
In the case of “ADQAANKWGRSGRDPNHFR [SEQ ID NO:11, residues 78-96 of human SAA2.1]”, the “cholesterol export enhancing activity relative to the human SAA1.1 78-96 containing liposomal formulation (FIG. 9)” value (J774 macrophages) is reported as “about half”.
With “ADQEANRHGRSGKDPNYYRPPGLPAKY [SEQ ID NO:10] ([dA][dD][dQ][dE][dA][dN][dR][dH]G[dR][dS]G[dK][dD][dP][dN][dY][dY][dR][dP][dP]G[dL][dP][dA][dK][dY]) [residues 77-103 of murine SAA1.1, all D-amino acids]” the “duration of increase in cholesterol efflux (FIG. 12)” value ([1]; following oral and intravenous administration) was “at least 4 days”, the “radiolabeled cholesterol exported in the plasma (FIG. 15)” value ([1]; non-liposome formulated, in 100 μl PBS, intravenous, 15 μg/mouse peptide or 75 μg/mouse full length protein) was “caused an increase in cholesterol exported in the plasma” and the “[3H]-cholesterol efflux as plasma radioactivity (dpm) (FIG. 11)” value ([1]; non-liposome formulated, in PBS, intravenous, 30 to 600 μg per mouse) was “dose-dependent increase”. The “efficacy on oral administration to fasted animals versus animals receiving food (FIG. 16)” value ([1]; non-liposome formulated, oral, 300 μg) was “further enhanced”, the “cholesterol exported to the plasma at 24 hours, PBS containing 5% weight/volume glucose versus PBS (FIG. 13)” value ([1]; non-liposome formulated, oral, same dose) was “higher” and the “efficacy with smaller volume vehicle containing the same amount of peptide (FIG. 16)” value ([1]; oral, 300 μg in 100 μl versus 500 μl PBS, fasted and fed mice) was “efficacy was enhanced”.
“DQAANKWGRSGRDPNHFR [SEQ ID NO:26, residues 79-96 of human SAA2.1]” was tested, and the “cholesterol export enhancing activity relative to the human SAA1.1 78-96 containing liposomal formulation (FIG. 9)” value (J774 macrophages) was “about half”.
With “QAANKWGRSGRDPNHFR [SEQ ID NO:27, residues 80-96 of human SAA2.1]” the “cholesterol export enhancing activity, time course (FIG. 9)” value (J774 macrophages) was “little to no cholesterol export enhancing activity”.
In the case of “RSFFSFLGEAFDGARDMWRAYSD [SEQ ID NO:6, synthetic peptide, residues 1-23 of human SAA1.1 and/or SAA2.1]”, the “[3H]-cholesterol efflux as plasma radioactivity (dpm) (FIG. 1)” value ([1]; intravenous liposomes containing 0.5 μM peptide, 24 hours after macrophages) is reported as “promoted in vivo cholesterol export”.
With “TDMKEANWKNSDKYFHARGNYDAAQRGPGG [SEQ ID NO:2, synthetic peptide, residues 21-50 of murine SAA2.1]” the “rate of hydrolysis of [14C]-labeled cholesteryl oleate versus protein-free liposomes” value [2] was “no significant differences”, the “relative acyl CoA:cholesterol acyl transferase activity” value [3] was “no significant effect” and the “rate of [3H]cholesterol efflux into medium containing HDL” value (J774 macrophages) was “did not cause any significant changes”.
With “VWAAEKISDGREAFQEFFGRGHEDTIADQE [SEQ ID NO:3, synthetic peptide, residues 51-80 of murine SAA2.1]” the “rate of hydrolysis of [14C]-labeled cholesteryl oleate versus protein-free liposomes” value [2] was “no significant differences”, the “relative acyl CoA:cholesterol acyl transferase activity” value [3] was “no significant effect” and the “rate of [3H]cholesterol efflux into medium containing HDL” value (J774 macrophages) was “did not cause any significant changes”.
